Assay results from ChEMBL document CHEMBL5380773, “Novel Feleucin-K3-Derived Peptides Modified with Sulfono-γ-AA Building Blocks Targeting Pseudomonas aeruginosa and Methicillin-Resistant Staphylococcus aureus Infections” (J Med Chem, 2023).
Numbered stars: 1 amine (or outer) side, 2 acyl side, 3 side chain; on linkers, the order of the positions; unused ones are H or OH. Square brackets hold non-standard residues; d marks the D form. Peptide text beside a SMILES is read from it. * marks the point of attachment. X12 = NC(=O)CN(C[C@H](Cc1ccccc1)N*)S(=O)(=O)c1ccc([N+](=O)[O-])cc1; X17 = CC(C)C[C@@H](CN(CC(N)=O)S(=O)(=O)c1ccccc1[N+](=O)[O-])N*; X18 = NC(=O)CN(C[C@H](Cc1ccccc1)N*)S(=O)(=O)c1ccc(Cl)cc1; Benzenesulfonyl(2-NO2) = O=[N+]([O-])c1ccccc1S(=O)(=O)*; X23 = NC(=O)CN(C[C@H](Cc1ccccc1)N*)S(=O)(=O)c1ccc(F)cc1; X27 = Cc1ccc(S(=O)(=O)N(CC(N)=O)C[C@H](CC(C)C)N*)cc1; X8 = CC(C)C[C@@H](CN(CC(N)=O)S(=O)(=O)c1ccc(I)cc1)N*; Benzenesulfonyl(4-F) = O=S(=O)(c1ccc(F)cc1)*; X5 = CC(C)c1cc(C(C)C)c(S(=O)(=O)*)c(C(C)C)c1; X3 = N[C@@H](Cc1ccccc1)CN(CC(=O)[*:2])[*:1]; X2 = CC(C)C[C@H](N)CN(CC(=O)[*:2])[*:1]; X4 = O=S(=O)(c1cccc(Cl)c1)*

Tested on: Erythrocyte
Assay: Hemolytic activity against mouse red blood cells incubated for 1 hr
Format: toxicity, cell-based

Compound	MHC
CC(C)C[C@H](NC(=O)[C@H](CC(C)C)NC(=O)[C@H](CCCCN)NC(=O)[C@H](CC(C)C)NC(=O)[C@@H](N)Cc1ccccc1)C(=O)N[C@@H](CCCCN)C(=O)N[C@@H](CCCCN)C(=O)N[C@@H](Cc1ccccc1)CN(CC(N)=O)S(=O)(=O)c1ccc([N+](=O)[O-])cc1 (H-FLKLLKK-X12)	256 µg/mL
CC(C)C[C@H](NC(=O)[C@H](CC(C)C)NC(=O)[C@H](CCCCN)NC(=O)[C@H](CC(C)C)NC(=O)[C@@H](N)Cc1ccccc1)C(=O)N[C@@H](CCCCN)C(=O)N[C@@H](CCCCN)C(=O)N[C@@H](Cc1ccccc1)CN(CC(N)=O)S(=O)(=O)c1ccc(F)cc1 (H-FLKLLKK-X23)	256 µg/mL
CC(C)C[C@H](NC(=O)[C@H](CC(C)C)NC(=O)[C@H](CCCCN)NC(=O)[C@H](CCCCN)NC(=O)[C@H](CC(C)C)NC(=O)[C@H](CC(C)C)NC(=O)[C@H](CCCCN)NC(=O)CN(C[C@@H](N)Cc1ccccc1)S(=O)(=O)c1c(C(C)C)cc(C(C)C)cc1C(C)C)C(N)=O (X5-[X3]KLLKKLL-NH2)	16 µg/mL
CC(C)C[C@H](N)CN(CC(=O)N[C@@H](CCCCN)C(=O)N[C@@H](CC(C)C)C(=O)N[C@@H](CC(C)C)C(=O)N[C@@H](CCCCN)C(=O)N[C@@H](CCCCN)C(=O)N[C@@H](CC(C)C)C(=O)N[C@@H](CC(C)C)C(N)=O)S(=O)(=O)c1cccc(Cl)c1 (X4-[X2]KLLKKLL-NH2)	256 µg/mL
CC(C)C[C@H](NC(=O)[C@H](CC(C)C)NC(=O)[C@H](CCCCN)NC(=O)[C@H](CCCCN)NC(=O)[C@H](CC(C)C)NC(=O)[C@H](CC(C)C)NC(=O)[C@H](CCCCN)NC(=O)CN(C[C@@H](N)Cc1ccccc1)S(=O)(=O)c1ccccc1[N+](=O)[O-])C(N)=O ({Benzenesulfonyl(2-NO2)}-[X3]KLLKKLL-NH2)	256 µg/mL
CC(C)C[C@H](N)CN(CC(=O)N[C@@H](CCCCN)C(=O)N[C@@H](CC(C)C)C(=O)N[C@@H](CC(C)C)C(=O)N[C@@H](CCCCN)C(=O)N[C@@H](CCCCN)C(=O)N[C@@H](CC(C)C)C(=O)N[C@@H](CC(C)C)C(N)=O)S(=O)(=O)c1ccc(F)cc1 ({Benzenesulfonyl(4-F)}-[X2]KLLKKLL-NH2)	256 µg/mL
Cc1ccc(S(=O)(=O)N(CC(N)=O)C[C@H](CC(C)C)NC(=O)[C@H](CCCCN)NC(=O)[C@H](CCCCN)NC(=O)[C@H](CC(C)C)NC(=O)[C@H](CC(C)C)NC(=O)[C@H](CCCCN)NC(=O)[C@H](CC(C)C)NC(=O)[C@@H](N)Cc2ccccc2)cc1 (H-FLKLLKK-X27)	256 µg/mL
CC(C)C[C@@H](CN(CC(N)=O)S(=O)(=O)c1ccccc1[N+](=O)[O-])NC(=O)[C@H](CCCCN)NC(=O)[C@H](CCCCN)NC(=O)[C@H](CC(C)C)NC(=O)[C@H](CC(C)C)NC(=O)[C@H](CCCCN)NC(=O)[C@H](CC(C)C)NC(=O)[C@@H](N)Cc1ccccc1 (H-FLKLLKK-X17)	256 µg/mL
CC(C)C[C@@H](CN(CC(N)=O)S(=O)(=O)c1ccc(I)cc1)NC(=O)[C@H](CCCCN)NC(=O)[C@H](CCCCN)NC(=O)[C@H](CC(C)C)NC(=O)[C@H](CC(C)C)NC(=O)[C@H](CCCCN)NC(=O)[C@H](CC(C)C)NC(=O)[C@@H](N)Cc1ccccc1 (H-FLKLLKK-X8)	256 µg/mL
CC(C)C[C@H](NC(=O)[C@H](CC(C)C)NC(=O)[C@H](CCCCN)NC(=O)[C@H](CC(C)C)NC(=O)[C@@H](N)Cc1ccccc1)C(=O)N[C@@H](CCCCN)C(=O)N[C@@H](CCCCN)C(=O)N[C@@H](Cc1ccccc1)CN(CC(N)=O)S(=O)(=O)c1ccc(Cl)cc1 (H-FLKLLKK-X18)	128 µg/mL
CC(C)C[C@H](N)CN(CC(=O)N[C@@H](CCCCN)C(=O)N[C@@H](CC(C)C)C(=O)N[C@@H](CC(C)C)C(=O)N[C@@H](CCCCN)C(=O)N[C@@H](CCCCN)C(=O)N[C@@H](CC(C)C)C(=O)N[C@@H](CC(C)C)C(N)=O)S(=O)(=O)c1ccccc1[N+](=O)[O-] ({Benzenesulfonyl(2-NO2)}-[X2]KLLKKLL-NH2)	256 µg/mL
